According to paper PMC7029851, “Antibacterial activity of novel dual bacterial DNA type II topoisomerase inhibitors” (PLoS ONE, 2020):
In brackets after ≈: the same amount, converted by molar mass. Like-named read-outs stand apart in the source and are kept apart here.

What was measured:
E. coli DNA gyrase = target: T1, E. coli DNA gyrase (Escherichia coli, UniProt P0AES4); experiment: E. coli DNA gyrase supercoiling gel assay; type: biochemical
T1 construct: purchased Inspiralis (Norwich, UK)
Method: (§1) S. aureus and E. coli DNA gyrase supercoiling and topo IV decatenation assay kits, as well as human topoisomerase II decatenation assay kits, were provided by Inspiralis (Norwich, UK). Assays were performed according to the manufacturer’s instructions. The compounds were serially diluted (1:3 dilutions starting from a 300 μM final concentration) and assayed in a reaction mixture to obtain concentration-response curves in two different replicate experiments. The final concentration of DMSO in the assays was 1% (v/v). The reactions were terminated by the addition of 30 μl chloroform/isoamyl alcohol (26:1) and 30 μl Stop Dye (40% sucrose, 100 mM Tris HCl pH 7.5, 1 mM EDTA, 0.5 μg/ml bromophenol blue), after which the samples were loaded onto a 1.0% TAE ([…]) gel that was then run at 80 V for 2 hours. DNA bands were visualized by ethidium bromide staining the gel for 10 minutes, which was then destained for 10 minutes in water and analysed using gel documentation equipment (Syngene, Cambridge, UK). The DNA in each band was quantitated using Syngene Gene Tools software. Raw gel data (fluorescent band volumes) were converted by the software to percentages of the control (the fully supercoiled or decatenated DNA band). […] The global curve fit non-linear regression tool was used to calculate the IC50 values. The results are expressed as the average values obtained after calculating the IC50 from each replicate run.

E. coli Topoisomerase IV = target: T2, E. coli Topoisomerase IV (Escherichia coli, UniProt P0AFI2); experiment: E. coli topoisomerase IV decatenation gel assay; type: biochemical
T2 construct: purchased Inspiralis (Norwich, UK)
Method: as §1

S. aureus DNA gyrase = target: T3, S. aureus DNA gyrase (Staphylococcus aureus, UniProt P20831); experiment: S. aureus DNA gyrase supercoiling gel assay; type: biochemical
T3 construct: purchased Inspiralis (Norwich, UK)
Method: as §1

[1] = target: T4, S. aureus Topoisomerase IV (Staphylococcus aureus, UniProt P0C1U9); experiment: S. aureus topoisomerase IV decatenation gel assay; type: biochemical
T4 construct: purchased Inspiralis (Norwich, UK)
Method: as §1

Human Topoisomerase II = target: T5, Human Topoisomerase II (Homo sapiens, UniProt P11388); experiment: Human topoisomerase II decatenation gel assay; type: biochemical
T5 construct: purchased Inspiralis (Norwich, UK)
Method: as §1

S. aureus ATCC 29213 = experiment: MIC, broth microdilution; type: cell-based, Staphylococcus aureus; details: Staphylococcus aureus
Method: (§2) MICs were determined by the broth microdilution method (the agar dilution method was used only for N. gonorrhoeae) according to CLSI guidelines.

E. coli ATCC 25922 = experiment: MIC, broth microdilution; type: cell-based; details: Escherichia coli, ATCC25922; E. coli ATCC 25922, ciprofloxacin-susceptible
Method: as §2

E. faecalis ATCC 29212 = experiment: MIC, broth microdilution; type: cell-based; details: Enterococcus faecalis, ATCC29212; E. faecalis ATCC 29212, ciprofloxacin-susceptible
Method: as §2

H. influenzae ATCC 49766 = experiment: MIC, broth microdilution; type: cell-based; details: Haemophilus influenzae, ATCC49766; H. influenzae ATCC 49766, ciprofloxacin-susceptible
Method: as §2

[2] = tested on: K. pneumoniae ATCC 700603; experiment: MIC, broth microdilution; type: cell-based; details: Klebsiella pneumoniae, ATCC700603; K. pneumoniae ATCC 700603, ciprofloxacin-susceptible
Method: as §2

P. aeruginosa ATCC 27853 = experiment: MIC, broth microdilution; type: cell-based; details: Pseudomonas aeruginosa, ATCC27853; P. aeruginosa ATCC 27853, ciprofloxacin-susceptible
Method: as §2

S. aureus BAA-1720 = experiment: MIC, broth microdilution; type: cell-based; details: Staphylococcus aureus, BAA1720; S. aureus BAA-1720, ciprofloxacin-resistant
Method: as §2

S. pneumoniae ATCC 49619 = experiment: MIC, broth microdilution; type: cell-based; details: Streptococcus pneumoniae, ATCC49619; S. pneumoniae ATCC 49619, ciprofloxacin-susceptible
Method: as §2

[3] = tested on: N. gonorrhoeae ATCC 19424; experiment: MIC, agar dilution; type: cell-based; details: Neisseria gonorrhoeae, ATCC19424; N. gonorrhoeae ATCC 19424, ciprofloxacin-susceptible
Method: as §2

[4] = tested on: N. gonorrhoeae ATCC 49226; experiment: MIC, agar dilution; type: cell-based; details: Neisseria gonorrhoeae, ATCC49226; N. gonorrhoeae ATCC 49226, ciprofloxacin-susceptible
Method: as §2

N. gonorrhoeae WHO K = experiment: MIC, agar dilution; type: cell-based; details: Neisseria gonorrhoeae, ciprofloxacin-resistant
Method: as §2

N. gonorrhoeae WHO L = experiment: MIC, agar dilution; type: cell-based; details: Neisseria gonorrhoeae, ciprofloxacin-resistant
Method: as §2

N. gonorrhoeae WHO N = experiment: MIC, agar dilution; type: cell-based; details: Neisseria gonorrhoeae, ciprofloxacin-resistant
Method: as §2

E. coli TolC- mutant = experiment: microbe, parasite or virus in culture; type: cell-based; details: Escherichia coli
Method: (§3) The bacterial reference strains used in this study were purchased from ATCC (American Type Culture Collection) via LGC Standards (Middlesex, UK). […] Clinical MDR isolates were provided by Aptuit, the IHMA Europa Sàrl repository (Epalinges, Switzerland) and the Statens Serum Institute (Copenhagen, Denmark).
as §2

[5] = tested on: E. faecalis clinical isolates (n = 12) vanA (6)/vanB (6); experiment: MIC, multidrug-resistant clinical isolates; type: cell-based; details: Enterococcus faecalis; for MIC: read-out: MIC range
Method: as §3, §2
(§4) The results obtained using clinical isolates are reported as MIC50 and MIC90 values.

[6] = tested on: E. faecium clinical isolates (n = 12) vanA (6)/vanB (6); experiment: MIC, multidrug-resistant clinical isolates; type: cell-based; details: Enterococcus faecium; for MIC: read-out: MIC range
Method: as §3, §2, §4

[7] = tested on: N. gonorrhoeae clinical isolates (n = 38); experiment: microbe, parasite or virus in culture; type: cell-based, Neisseria gonorrhoeae; details: for MIC50 / MIC90: Neisseria gonorrhoeae
Method: as §3, §2, §4

[8] = replicate Assay 1, read-out: IC50 S.aureus gyrase Supercoiling, Assay 1
[9] = replicate Assay 2, read-out: IC50 S.aureus gyrase Supercoiling, Assay 2
[10] = replicate Assay 1, read-out: IC50 S. aureus Topoisomerase IV decatenation, Assay 1
[11] = replicate Assay 2, read-out: IC50 S. aureus Topoisomerase IV decatenation, Assay 2
[12] = average of two replicate experiments, read-out: IC50 Human Topoisomerase II decatenation (average)
[13] = replicate Assay 1, read-out: IC50 Human Topoisomerase II (TopoII) decatenation, Assay 1
[14] = replicate Assay 2, read-out: IC50 Human Topoisomerase II (TopoII) decatenation, Assay 2
[15] = ATCC29213, S. aureus ATCC 29213, ciprofloxacin-susceptible

T2 sequence (P20083 whole entry): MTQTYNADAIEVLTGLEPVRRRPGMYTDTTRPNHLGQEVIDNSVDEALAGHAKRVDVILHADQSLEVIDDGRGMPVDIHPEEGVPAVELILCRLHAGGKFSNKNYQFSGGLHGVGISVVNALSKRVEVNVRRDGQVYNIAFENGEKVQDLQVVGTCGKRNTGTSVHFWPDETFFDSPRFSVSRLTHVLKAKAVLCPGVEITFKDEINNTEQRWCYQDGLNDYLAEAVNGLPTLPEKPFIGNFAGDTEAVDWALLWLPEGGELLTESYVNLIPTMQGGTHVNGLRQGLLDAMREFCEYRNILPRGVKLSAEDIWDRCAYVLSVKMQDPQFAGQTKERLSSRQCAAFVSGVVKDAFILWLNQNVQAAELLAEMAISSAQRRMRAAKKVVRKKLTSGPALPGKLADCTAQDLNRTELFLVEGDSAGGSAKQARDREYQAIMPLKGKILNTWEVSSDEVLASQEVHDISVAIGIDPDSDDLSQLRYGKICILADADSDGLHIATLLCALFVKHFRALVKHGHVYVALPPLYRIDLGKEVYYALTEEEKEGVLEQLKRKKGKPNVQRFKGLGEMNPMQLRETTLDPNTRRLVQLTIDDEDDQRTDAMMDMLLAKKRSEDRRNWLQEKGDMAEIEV
T2 sequence (P0AFI2 whole entry): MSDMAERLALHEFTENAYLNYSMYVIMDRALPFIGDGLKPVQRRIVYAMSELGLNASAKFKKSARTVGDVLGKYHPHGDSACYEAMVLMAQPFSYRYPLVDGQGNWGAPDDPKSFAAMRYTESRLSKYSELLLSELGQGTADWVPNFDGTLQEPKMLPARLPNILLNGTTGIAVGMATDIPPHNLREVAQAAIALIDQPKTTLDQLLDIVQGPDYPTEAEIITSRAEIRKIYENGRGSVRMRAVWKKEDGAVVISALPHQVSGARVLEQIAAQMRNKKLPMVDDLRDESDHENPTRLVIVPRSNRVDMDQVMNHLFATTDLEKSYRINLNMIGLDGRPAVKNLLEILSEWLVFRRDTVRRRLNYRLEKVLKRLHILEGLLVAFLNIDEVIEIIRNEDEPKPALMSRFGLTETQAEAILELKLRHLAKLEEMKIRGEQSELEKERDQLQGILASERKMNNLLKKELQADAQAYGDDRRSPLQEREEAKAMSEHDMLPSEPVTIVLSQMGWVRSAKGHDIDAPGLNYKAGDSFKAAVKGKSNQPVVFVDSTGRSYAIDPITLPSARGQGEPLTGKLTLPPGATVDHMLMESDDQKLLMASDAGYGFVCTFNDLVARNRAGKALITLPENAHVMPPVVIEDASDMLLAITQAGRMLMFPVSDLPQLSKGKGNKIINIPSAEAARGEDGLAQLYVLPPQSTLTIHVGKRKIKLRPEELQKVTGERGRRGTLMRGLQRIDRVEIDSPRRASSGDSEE
T1 sequence (P0AES4 whole entry): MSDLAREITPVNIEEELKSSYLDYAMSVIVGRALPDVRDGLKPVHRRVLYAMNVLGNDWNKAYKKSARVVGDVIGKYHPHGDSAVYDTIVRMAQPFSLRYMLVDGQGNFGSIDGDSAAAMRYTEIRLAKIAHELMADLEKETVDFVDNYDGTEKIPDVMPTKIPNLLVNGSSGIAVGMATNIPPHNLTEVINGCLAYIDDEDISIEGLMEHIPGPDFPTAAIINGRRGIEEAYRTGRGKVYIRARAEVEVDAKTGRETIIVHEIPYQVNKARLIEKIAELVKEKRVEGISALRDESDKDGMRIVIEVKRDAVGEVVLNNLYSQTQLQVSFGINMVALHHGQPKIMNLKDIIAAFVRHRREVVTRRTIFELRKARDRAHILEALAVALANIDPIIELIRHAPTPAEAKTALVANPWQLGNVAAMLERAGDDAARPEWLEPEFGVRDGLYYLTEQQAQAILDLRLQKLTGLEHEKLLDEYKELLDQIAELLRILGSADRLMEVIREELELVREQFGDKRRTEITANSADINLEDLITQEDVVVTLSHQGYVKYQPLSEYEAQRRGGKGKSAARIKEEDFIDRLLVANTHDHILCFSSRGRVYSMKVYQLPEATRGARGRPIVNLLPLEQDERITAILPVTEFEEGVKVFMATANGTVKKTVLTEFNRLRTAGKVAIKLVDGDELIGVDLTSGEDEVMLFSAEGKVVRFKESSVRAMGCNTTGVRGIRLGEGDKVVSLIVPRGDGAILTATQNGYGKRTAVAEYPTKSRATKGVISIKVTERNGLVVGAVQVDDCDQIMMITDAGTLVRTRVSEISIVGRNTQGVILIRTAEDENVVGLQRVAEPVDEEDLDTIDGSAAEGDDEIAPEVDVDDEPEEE
T3 sequence (P20831 whole entry): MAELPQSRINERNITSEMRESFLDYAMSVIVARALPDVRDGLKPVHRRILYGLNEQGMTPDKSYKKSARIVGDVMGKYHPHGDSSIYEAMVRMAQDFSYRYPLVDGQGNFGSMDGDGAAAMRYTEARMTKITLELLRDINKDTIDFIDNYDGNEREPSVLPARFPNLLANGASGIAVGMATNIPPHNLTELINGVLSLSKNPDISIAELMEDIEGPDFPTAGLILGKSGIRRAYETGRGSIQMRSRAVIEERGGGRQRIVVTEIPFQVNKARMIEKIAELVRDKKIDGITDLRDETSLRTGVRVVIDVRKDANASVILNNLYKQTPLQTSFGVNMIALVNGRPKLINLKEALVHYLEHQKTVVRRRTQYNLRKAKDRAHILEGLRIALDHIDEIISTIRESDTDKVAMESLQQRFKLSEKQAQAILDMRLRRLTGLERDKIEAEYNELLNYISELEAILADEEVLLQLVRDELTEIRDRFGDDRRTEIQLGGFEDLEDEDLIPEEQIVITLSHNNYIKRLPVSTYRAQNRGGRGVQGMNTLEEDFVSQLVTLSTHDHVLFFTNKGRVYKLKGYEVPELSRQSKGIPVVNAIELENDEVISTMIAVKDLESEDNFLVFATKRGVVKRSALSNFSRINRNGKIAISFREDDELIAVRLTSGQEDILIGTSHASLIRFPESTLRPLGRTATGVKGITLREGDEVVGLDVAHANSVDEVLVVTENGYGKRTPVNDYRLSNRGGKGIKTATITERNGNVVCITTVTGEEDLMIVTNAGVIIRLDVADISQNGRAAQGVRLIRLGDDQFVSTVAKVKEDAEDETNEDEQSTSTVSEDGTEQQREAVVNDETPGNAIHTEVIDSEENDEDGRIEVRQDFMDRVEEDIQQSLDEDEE
T3 sequence (P0A0K8 whole entry partner): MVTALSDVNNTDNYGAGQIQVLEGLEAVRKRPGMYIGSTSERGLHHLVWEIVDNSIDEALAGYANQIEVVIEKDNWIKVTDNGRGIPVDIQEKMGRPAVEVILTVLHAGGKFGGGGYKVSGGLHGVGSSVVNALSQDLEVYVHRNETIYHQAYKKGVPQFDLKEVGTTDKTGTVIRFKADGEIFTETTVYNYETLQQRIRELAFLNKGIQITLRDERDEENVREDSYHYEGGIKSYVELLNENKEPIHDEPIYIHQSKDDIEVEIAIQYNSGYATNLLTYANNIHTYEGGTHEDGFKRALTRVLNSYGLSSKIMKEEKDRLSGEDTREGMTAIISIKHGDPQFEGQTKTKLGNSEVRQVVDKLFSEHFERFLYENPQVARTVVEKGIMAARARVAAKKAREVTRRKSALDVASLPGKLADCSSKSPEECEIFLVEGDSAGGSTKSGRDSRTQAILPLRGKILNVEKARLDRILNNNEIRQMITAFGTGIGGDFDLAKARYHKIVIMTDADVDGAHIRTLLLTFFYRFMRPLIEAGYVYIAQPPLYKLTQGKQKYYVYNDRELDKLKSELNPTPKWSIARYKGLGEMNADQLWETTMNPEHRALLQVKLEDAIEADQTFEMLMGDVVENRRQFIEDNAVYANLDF

Row | SMILES | IC50 (S. aureus DNA gyrase; [8]) [nM] | IC50 (S. aureus DNA gyrase; [9]) [nM] | IC50 [1, 10] [nM] | IC50 [1, 11] [nM] | IC50 (Human Topoisomerase II; [12]) [nM] | IC50 (Human Topoisomerase II; [13]) [nM] | IC50 (Human Topoisomerase II; [14]) [nM] | MIC (S. aureus ATCC 29213; [15]) [µg/mL] | MIC (E. coli ATCC 25922) [µg/mL] | MIC (E. faecalis ATCC 29212) [µg/mL] | MIC (H. influenzae ATCC 49766) [µg/mL] | MIC [2] [µg/mL] | MIC (P. aeruginosa ATCC 27853) [µg/mL] | MIC (S. aureus BAA-1720) [µg/mL] | MIC (S. pneumoniae ATCC 49619) [µg/mL] | MIC [3] [µg/mL] | MIC [4] [µg/mL] | MIC (N. gonorrhoeae WHO K) [µg/mL] | MIC (N. gonorrhoeae WHO L) [µg/mL] | MIC (N. gonorrhoeae WHO N) [µg/mL] | further results
1 | O=C1COc2ncc(F)cc2N1[C@H]1CC[C@H](NCc2cc3c(=O)oc4ccc(F)cc4c3[nH]2)CC1 [Compound 1, 8-fluoro-2-({[trans-4-(7-fluoro-2-oxo-2,3-dihydro-1H-pyrido[2,3-b][1,4]oxazin-1-yl)cyclohexyl]amino}methyl)[1]benzopyrano[4,3-b]pyrrol-4(1H)-one] | 250 | 310 | 2200 | 2300 | 98000 | 96000 | 99000 | 0.25 (≈ 0.52 µM) | 0.5 (≈ 1.04 µM) | 2 (≈ 4.16 µM) | 0.25 (≈ 0.52 µM) | 4 (≈ 8.33 µM) | 2 (≈ 4.16 µM) | 0.5 (≈ 1.04 µM) | 0.5 (≈ 1.04 µM) | ≤ 0.06 | 0.06 (≈ 0.125 µM) | 0.12 (≈ 0.25 µM) | 0.12 (≈ 0.25 µM) | 0.06 (≈ 0.125 µM) | IC50 (E. coli DNA gyrase; average of two replicate experiments, read-out: IC50 E. coli Gyrase Supercoiling (average)): 250 nM; IC50 (E. coli DNA gyrase; replicate Assay 1, read-out: IC50 E. coli gyrase Supercoiling, Assay 1): 340 nM; IC50 (E. coli DNA gyrase; replicate Assay 2, read-out: IC50 E. coli gyrase Supercoiling, Assay 2): 160 nM; IC50 (E. coli Topoisomerase IV; average of two replicate experiments, read-out: IC50 E. coli Topoisomerase IV decatenation (average)): 1380 nM; IC50 (E. coli Topoisomerase IV; replicate Assay 1, read-out: IC50 E. coli Topoisomerase IV decatenation, Assay 1): 1350 nM; IC50 (E. coli Topoisomerase IV; replicate Assay 2, read-out: IC50 E. coli Topoisomerase IV decatenation, Assay 2): 1420 nM; IC50 (S. aureus DNA gyrase; IC50 S. aureus Gyrase Supercoiling (average), average of two replicate experiments): 280 nM; IC50 [1]: 2250 nM; MIC (S. aureus ATCC 29213; ATCC29213, S. aureus ATCC29213, ref strain, S4 File): 0.25 µg/mL (≈ 0.52 µM); MIC (E. coli TolC- mutant): ≤ 0.016 µg/mL; MIC50 [5]: 0.03 µg/mL (≈ 0.0624 µM); MIC90 [5]: 0.25 µg/mL (≈ 0.52 µM); MIC [5]: 0.03 to 0.25 µg/mL (≈ 0.0624 to 0.52 µM); MIC50 [6]: 1 µg/mL (≈ 2.08 µM); MIC90 [6]: 2 µg/mL (≈ 4.16 µM); MIC [6]: 0.03 to 16 µg/mL (≈ 0.0624 to 33.3 µM); MIC range [7]: 0.016 to 0.12 µg/mL; MIC50 [7]: 0.12 µg/mL (≈ 0.25 µM); MIC90 [7]: 0.12 µg/mL (≈ 0.25 µM)
2 | Cl.O=c1oc2ccc(F)cc2c2[nH]c(CN[C@H]3CC[C@H](n4c(=O)ccc5ncc(F)cc54)CC3)cc12 [Compound 3, 8-fluoro-2-({[trans-4-(7-fluoro-2-oxo-1,5-naphthyridin-1(2H)-yl)cyclohexyl]amino}methyl)[1]benzopyrano[4,3-b]pyrrol-4(1H)-one hydrochloride] | < 100 | < 100 | < 100 | < 100 | 56000 | 46000 | 66000 | 0.25 | 0.5 | 0.12 | 0.12 | 2 | 4 | 0.12 | 0.25 | ≤ 0.06 | 0.016 | 0.016 | 0.016 | 0.016 | IC50 (E. coli DNA gyrase; IC50 E. coli Gyrase Supercoiling (average), average of two replicate experiments): < 100 nM; IC50 (E. coli DNA gyrase; IC50 E. coli gyrase Supercoiling, Assay 1, replicate Assay 1): < 100 nM; IC50 (E. coli DNA gyrase; IC50 E. coli gyrase Supercoiling, Assay 2, replicate Assay 2): < 100 nM; IC50 (E. coli DNA gyrase; read-out: IC50 E. coli Gyrase Supercoiling (average), average of two replicate experiments): < 100 nM; IC50 (E. coli Topoisomerase IV; IC50 E. coli Topoisomerase IV decatenation (average), average of two replicate experiments): < 100 nM; IC50 (E. coli Topoisomerase IV; IC50 E. coli Topoisomerase IV decatenation, Assay 1, replicate Assay 1): < 100 nM; IC50 (E. coli Topoisomerase IV; IC50 E. coli Topoisomerase IV decatenation, Assay 2, replicate Assay 2): < 100 nM; IC50 (E. coli Topoisomerase IV; read-out: IC50 E. coli Topoisomerase IV decatenation (average), average of two replicate experiments): < 100 nM; IC50 (S. aureus DNA gyrase; average of two replicate experiments, read-out: IC50 S. aureus Gyrase Supercoiling (average)): < 100 nM; IC50 ([1]; average of two replicate experiments, read-out: IC50 S. aureus Topoisomerase IV decatenation (average)): < 100 nM; MIC (E. coli TolC- mutant): ≤ 0.016 µg/mL; MIC50 [5]: 0.12 µg/mL; MIC90 [5]: 0.12 µg/mL; MIC [5]: 0.06 to 0.12 µg/mL; MIC50 [6]: 0.12 µg/mL; MIC90 [6]: 0.25 µg/mL; MIC [6]: 0.06 to 2 µg/mL; MIC range [7]: 0.004 to 0.03 µg/mL; MIC50 [7]: 0.016 µg/mL; MIC90 [7]: 0.03 µg/mL
